Experimental data as given in paper PMC8395219, “Comparative Analysis of Single-Molecule Dynamics of TRPV1 and TRPV4 Channels in Living Cells” (International Journal of Molecular Sciences, 2021).

Target: T1, TRPV4 (Homo sapiens, UniProt Q9HBA0)
T1 construct: HaloTag fused to the N-terminus of human TRPV4, expressed in TRPV4-KO HEK293 cells
Assay: FLIPR calcium mobilization assay in transfected TRPV4-KO HEK293 cells (agonist dose-response)
Assay type: cell-based

T1 sequence (Q9HBA0 whole entry, the tested form may be a part): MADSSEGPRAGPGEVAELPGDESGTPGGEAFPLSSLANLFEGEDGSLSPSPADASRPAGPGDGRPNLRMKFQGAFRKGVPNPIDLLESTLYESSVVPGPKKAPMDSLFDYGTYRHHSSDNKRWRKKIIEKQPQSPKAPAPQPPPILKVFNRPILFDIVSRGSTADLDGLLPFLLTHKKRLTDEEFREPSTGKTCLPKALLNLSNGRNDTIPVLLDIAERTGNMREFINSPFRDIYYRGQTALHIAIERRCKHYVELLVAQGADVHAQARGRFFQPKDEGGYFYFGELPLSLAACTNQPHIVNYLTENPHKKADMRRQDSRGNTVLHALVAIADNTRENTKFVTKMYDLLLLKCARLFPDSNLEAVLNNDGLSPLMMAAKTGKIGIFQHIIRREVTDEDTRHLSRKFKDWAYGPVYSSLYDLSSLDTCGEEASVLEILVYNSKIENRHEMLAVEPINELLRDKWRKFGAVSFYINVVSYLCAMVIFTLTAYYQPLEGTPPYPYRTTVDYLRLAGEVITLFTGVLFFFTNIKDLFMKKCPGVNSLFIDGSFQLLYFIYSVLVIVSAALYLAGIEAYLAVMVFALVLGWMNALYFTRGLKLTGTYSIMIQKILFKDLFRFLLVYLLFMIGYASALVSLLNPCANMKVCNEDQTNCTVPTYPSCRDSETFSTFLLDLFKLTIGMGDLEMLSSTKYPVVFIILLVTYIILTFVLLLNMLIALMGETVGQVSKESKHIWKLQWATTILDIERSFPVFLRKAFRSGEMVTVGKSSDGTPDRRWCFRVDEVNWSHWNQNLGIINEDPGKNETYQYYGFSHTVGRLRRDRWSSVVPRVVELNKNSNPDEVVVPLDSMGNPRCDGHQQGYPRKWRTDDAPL

Molecule `CC(C)C[C@H](NC(=O)c1cc2ccccc2s1)C(=O)N1CCN(C(=O)[C@H](CO)NS(=O)(=O)c2ccc(Cl)cc2Cl)CC1` [GSK1016790A, N-((1S)-1-{[4-((2S)-2-{[(2,4-dichlorophenyl)sulfonyl]amino}-3-hydroxypropanoyl)-1-piperazinyl]carbonyl}-3-methylbutyl)-1-benzothiophene-2-carboxamide] has an EC50 of 26 nM.
